Assay results published in US8969343B2, “Histone demethylase inhibitors” (priority 2012, dated 2015).
Counter-ions that a name gives are not always drawn. Like-named read-outs stand apart in the source and are kept apart here.

Assays:
[1] = target: T1, JMJD2C (Homo sapiens, UniProt Q9H3R0); experiment: JMJD2C in vitro enzyme inhibition assay (TR-FRET); format: biochemical; conditions: 0.3 nM JMJD2C, 300 nM H3K9me3-biotin peptide, 2 μM alpha-ketoglutaric acid
T1 sequence (Q9H3R0 2-372): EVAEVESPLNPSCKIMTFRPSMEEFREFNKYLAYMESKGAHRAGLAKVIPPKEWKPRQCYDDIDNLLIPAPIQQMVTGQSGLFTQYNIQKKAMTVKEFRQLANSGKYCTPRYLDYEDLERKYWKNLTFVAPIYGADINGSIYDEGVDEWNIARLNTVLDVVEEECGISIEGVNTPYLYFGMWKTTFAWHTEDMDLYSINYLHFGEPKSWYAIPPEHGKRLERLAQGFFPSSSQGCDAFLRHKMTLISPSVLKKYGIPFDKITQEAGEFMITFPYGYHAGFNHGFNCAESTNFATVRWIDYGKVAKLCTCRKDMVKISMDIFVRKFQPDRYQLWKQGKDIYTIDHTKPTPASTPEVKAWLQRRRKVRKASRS
Procedure: (§1) This assay determines the ability of a test compound to inhibit Jarid1A, Jarid1B, and JMJD2C demethylase activity.
Reaction product was determined quantitatively by TR-FRET after the addition of detection reagent Phycolink Streptavidin-allophycocyanin (Prozyme) and Europium-anti-di-methylated histone H3 lysine 9 (H3K9me2) antibody (PerkinElmer) in the presence of 5 mM EDTA in LANCE detection buffer (PerkinElmer) at a final concentration of 50 nM and 1 nM, respectively.
The assay reaction was initiated by the following: 2 μl of the mixture of 900 nM H3K9me3-biotin labeled peptide and 6 μM alpha-ketoglutaric acid with 2 μl of 11-point serial diluted inhibitor in 3% DMSO were added to each well of the plate, followed by the addition of 2 μl of 0.9 nM JMJD2C to initiate the reaction. The reaction mixture was incubated at room temperature for 30 minutes, and terminated by the addition of 6 μl of 5 mM EDTA in LANCE detection buffer containing 100 nM Phycolink Streptavidin-allophycocyanin and 2 nM Europium-anti-H3K9me2 antibody.

[2] = target: T2, Jarid1B (Homo sapiens, UniProt Q9UGL1); experiment: Jarid1B in vitro enzyme inhibition assay (TR-FRET); format: biochemical; conditions: 0.8 nM Jarid1B, 300 nM H3K4me3-biotin peptide, 2 μM alpha-ketoglutaric acid
T2 sequence (Q9UGL1 2-751): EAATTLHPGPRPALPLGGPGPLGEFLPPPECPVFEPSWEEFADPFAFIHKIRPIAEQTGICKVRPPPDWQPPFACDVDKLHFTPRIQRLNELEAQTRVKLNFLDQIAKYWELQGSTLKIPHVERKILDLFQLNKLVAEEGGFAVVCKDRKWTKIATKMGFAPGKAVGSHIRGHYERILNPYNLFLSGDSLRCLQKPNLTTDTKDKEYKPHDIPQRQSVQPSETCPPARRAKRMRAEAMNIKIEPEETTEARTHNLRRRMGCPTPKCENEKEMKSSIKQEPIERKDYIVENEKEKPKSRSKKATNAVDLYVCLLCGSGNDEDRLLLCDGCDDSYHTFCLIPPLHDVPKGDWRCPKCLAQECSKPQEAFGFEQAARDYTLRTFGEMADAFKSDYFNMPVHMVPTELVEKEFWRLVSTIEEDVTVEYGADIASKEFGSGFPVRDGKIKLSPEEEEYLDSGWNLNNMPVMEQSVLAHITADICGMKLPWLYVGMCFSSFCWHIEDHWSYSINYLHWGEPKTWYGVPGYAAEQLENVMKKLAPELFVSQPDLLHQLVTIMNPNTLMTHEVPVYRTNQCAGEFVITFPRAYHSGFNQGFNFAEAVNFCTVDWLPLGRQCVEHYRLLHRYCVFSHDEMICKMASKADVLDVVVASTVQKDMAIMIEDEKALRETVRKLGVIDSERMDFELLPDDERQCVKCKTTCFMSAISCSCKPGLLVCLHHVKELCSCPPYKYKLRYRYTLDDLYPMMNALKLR
Procedure: as §1
The reaction mixture was incubated at room temperature for 30 minutes, and terminated by the addition of 6 μl of 5 mM EDTA in LANCE detection buffer containing 50 nM Phycolink Streptavidin-allophycocyanin and 2 nM Europium-anti-H3K4me1-2 antibody.

[3] = target: T3, Jarid1A (Homo sapiens, UniProt P29375); experiment: Jarid1A in vitro enzyme inhibition assay (TR-FRET); format: biochemical
T3 construct: purchased BPS Bioscience 50110
T3 sequence (P29375 1-1090): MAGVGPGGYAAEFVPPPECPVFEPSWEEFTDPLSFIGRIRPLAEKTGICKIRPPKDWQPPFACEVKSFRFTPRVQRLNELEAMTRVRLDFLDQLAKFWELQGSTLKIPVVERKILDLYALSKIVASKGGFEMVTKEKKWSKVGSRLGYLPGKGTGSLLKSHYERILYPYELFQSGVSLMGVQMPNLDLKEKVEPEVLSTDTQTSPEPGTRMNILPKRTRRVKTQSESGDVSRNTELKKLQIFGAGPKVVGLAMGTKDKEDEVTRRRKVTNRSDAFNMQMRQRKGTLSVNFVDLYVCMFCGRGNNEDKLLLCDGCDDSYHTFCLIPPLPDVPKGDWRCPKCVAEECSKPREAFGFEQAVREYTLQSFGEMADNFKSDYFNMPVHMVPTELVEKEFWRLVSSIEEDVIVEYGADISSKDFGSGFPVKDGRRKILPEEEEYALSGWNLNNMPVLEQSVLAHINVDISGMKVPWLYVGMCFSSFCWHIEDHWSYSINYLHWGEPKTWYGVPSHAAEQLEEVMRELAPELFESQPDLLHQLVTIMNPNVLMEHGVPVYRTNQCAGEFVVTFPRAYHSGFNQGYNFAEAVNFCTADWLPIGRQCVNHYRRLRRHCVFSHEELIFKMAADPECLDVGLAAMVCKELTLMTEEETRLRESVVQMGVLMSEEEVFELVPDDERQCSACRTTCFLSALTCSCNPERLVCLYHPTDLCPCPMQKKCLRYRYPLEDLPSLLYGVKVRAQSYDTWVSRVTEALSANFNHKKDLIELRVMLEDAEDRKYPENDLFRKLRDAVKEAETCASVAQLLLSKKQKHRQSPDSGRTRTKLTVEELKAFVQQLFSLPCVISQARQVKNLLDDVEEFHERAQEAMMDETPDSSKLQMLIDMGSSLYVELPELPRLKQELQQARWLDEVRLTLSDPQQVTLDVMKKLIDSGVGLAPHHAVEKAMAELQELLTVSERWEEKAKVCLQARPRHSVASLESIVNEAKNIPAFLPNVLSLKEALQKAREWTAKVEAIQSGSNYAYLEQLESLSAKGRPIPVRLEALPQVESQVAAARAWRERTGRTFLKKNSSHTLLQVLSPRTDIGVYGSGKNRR
Procedure: as §1
The enzymatic assay of Jarid1A activity is based upon Time Resolved-Fluorescence Resonance Energy Transfer (TR-FRET) detection. […] The assay reaction was initiated by the following: 2 μl of the mixture of 900 nM H3K4me3-biotin labeled peptide and 6 μM alpha-ketoglutaric acid with 2 μl of 11-point serial diluted inhibitor in 3% DMSO was added to each well of plate, followed by the addition of 2 μl of 3 nM Jarid1A to initiate the reaction. The reaction mixture was incubated at room temperature for 30 minutes, and terminated by the addition of 6 μl of 5 mM EDTA in LANCE detection buffer containing 50 nM Phycolink Streptavidin-allophycocyanin and 2 nM Europium-anti-H3K4me1-2 antibody.

[4] = system: KDM5A/B; experiment: In vitro cell-based assay: tri-methyl H3K4 immuno-blotting in ZR-75-1 breast cancer cells; conditions: 72 hours, tri-methyl H3K4, relative IC50, read-out: Cellular IC50
Procedure: This quantitative immuno-blotting assay measures the amount tri-methylated histone H3 at amino acid Lysine number 4, a specific substrate […] of the direct enzymatic activity of the histone demethylases KDM5A and KDM5B from extracts of the ZR-75-1 breast cancer cell line.
This assay is a fluorometric immunoassay for the quantification of tri-methyl H3K4 extracted from cells treated with test compound and is used as a measure of the cellular inhibition of KDM5A/B.
Extracts were prepared containing all of the cellular histone material using detergent based lysis and sonication methods. These lysates were subsequently normalized for total protein content using a colorimetric bicinchonic acid assay (MicroBCA Pierce/Thermo Scientific). Normalized cell extracts were then subjected to typical immuno-blotting procedures using NuPage reagents (Life Technologies). […] The amount of tri-methylated lysine 4 of histone H3 was detected using an antibody specific to the tri-methylated state (Cell Signaling Technologies) and quantified on an infrared imager using a densitometry software package (Odyssey CLx, Image Studio, Li-Cor). This background subtracted densitometry value was reported as a ration of the GAPDH amount for that sample and then calculated as a percent of the DMSO treated sample. […]

[5] = 1 nM Jarid1A, 300 nM H3K4me3-biotin peptide, 2 μM alpha-ketoglutaric acid

Structure (SMILES)	IC50 [1] [µM]	IC50 [2] [µM]	IC50 [3, 5] [µM]	IC50 [4] [µM]	IC50 [3] [µM]
O=C(O)c1ccncc1Nc1nn(C2CCC(F)(F)CC2)c2ccc(F)cc12 [Example 64, 3-{[1-(4,4-difluorocyclohexyl)-5-fluoro-1H-indazol-3-yl]amino}pyridine-4-carboxylic acid]	1 to 10	1 to 10	1 to 10		
CN(C)CC#CCn1nc(Nc2cnccc2C(=O)O)c2cc(F)ccc21 [Example 49, 3-({1-[4-(dimethylamino)but-2-yn-1-yl]-5-fluoro-1H-indazol-3-yl}amino)pyridine-4-carboxylic acid, trifluoroacetic acid salt]	< 0.1	< 0.1	< 0.1		
Cn1nc2ccccc2c1Nc1cnccc1C(=O)O [Example 2, 3-[(2-methyl-2H-indazol-3-yl)amino]pyridine-4-carboxylic acid]	0.1 to 1	1 to 10	1 to 10		
O=C(O)c1ccncc1Nc1nn(Cc2ccccc2)c2ccc(F)cc12 [Example 24, 3-[(1-benzyl-5-fluoro-1H-indazol-3-yl)amino]pyridine-4-carboxylic acid]	0.1 to 1	< 0.1	< 0.1	> 10	
CNCCCCCn1nc(Nc2cnccc2C(=O)O)c2cc(F)ccc21 [Example 46, 3-({5-fluoro-1-[5-(methylamino)pentyl]-1H-indazol-3-yl}amino)pyridine-4-carboxylic acid, trifluoroacetic acid salt]	< 0.1	< 0.1	< 0.1		
CN(C)CCCCCn1nc(Nc2cnccc2C(=O)O)c2cc(F)ccc21 [Example 22]	0.1 to 1	< 0.1			< 0.1
